Measurements published in patent publication US9388199B2, “Pyrrolidine derivatives and their use as complement pathway modulators” (priority 2012, dated 2016).
Counter-ions that a name gives are not always drawn.

What follows are compounds tested against Recombinant human factor D (Homo sapiens (Human), UniProt P00746) (assay: Human Complement Factor D Assay: Method 1). Conditions: 10 nM factor D, substrate Z-Lys-thiobenzyl, fluorescence readout, read-out: IC50 (μM), Factor D inhibition.
Recombinant human factor D, sequence (P00746 26-253): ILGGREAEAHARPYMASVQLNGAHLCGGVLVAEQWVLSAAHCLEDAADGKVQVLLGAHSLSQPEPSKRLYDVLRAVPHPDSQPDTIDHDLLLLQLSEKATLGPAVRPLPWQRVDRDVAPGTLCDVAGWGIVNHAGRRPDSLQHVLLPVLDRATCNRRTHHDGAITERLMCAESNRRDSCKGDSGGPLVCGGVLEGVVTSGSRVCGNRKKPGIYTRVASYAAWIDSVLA
Type: biochemical
Method: Human Complement Factor D Assay: Method 1
Recombinant human factor D (expressed in E. coli and purified using standard methods) at 10 nM concentration is incubated with test compound at various concentrations for 1 hour at room temperature in 0.1 M Hepes buffer, pH 7.5, containing 1 mM MgCl2, 1 M NaCl and 0.05% CHAPS. A synthetic substrate Z-Lys-thiobenzyl and 2,4-dinitrobenzenesulfonyl-fluoresceine are added to final concentrations of 200 μM and 25 μM, respectively. The increase in fluorescence is recorded at excitation of 485 nm and emission at 535 nm in a microplate spectrofluorimeter. IC50 values are calculated from percentage of inhibition of complement factor D-activity as a function of test compound concentration.
With `CC(C)(C)CCNC(=O)[C@@H]1C[C@H]2C[C@H]2N1C(=O)Cn1nc(C(N)=O)c2ccccc21` [Example 1, 1-{2-[(1R,3S,5R)-3-(3,3-Dimethyl-butylcarbamoyl)-2-aza-bicyclo[3.1.0]hex-2-yl]-2-oxo-ethyl}-1H-indazole-3-carboxylic acid amide] the IC50 was 0.061 µM. Work on `CC(=O)c1nn(CC(=O)N2[C@@H]3C[C@@H]3C[C@H]2C(=O)NCCCOC(F)(F)F)c2ccccc12` [Example 2, (1R,3S,5R)-2-[2-(3-Acetyl-indazol-1-yl)-acetyl]-2-aza-bicyclo[3.1.0]hexane-3-carboxylic acid (3-trifluoromethoxy-propyl)-amide] yielded an IC50 of 0.605 µM. `CO[C@H]1[C@@H](C(=O)NCCC(C)(C)C)N(C(=O)Cn2nc(C(N)=O)c3ccccc32)C[C@@H]1F` [Example 3, 1-{2-[(2S,3S,4S)-2-(3,3-Dimethyl-butylcarbamoyl)-4-fluoro-3-methoxy-pyrrolidin-1-yl]-2-oxo-ethyl}-1H-indazole-3-carboxylic acid amide] gave an IC50 of 0.103 µM. In the case of `CO[C@H]1[C@@H](C(=O)NCCC(C)(C)C)N(C(=O)Cn2nc(C(N)=O)c3cc(C)ncc32)C[C@@H]1F` [Example 4, 1-{2-[(2S,3S,4S)-2-(3,3-Dimethyl-butylcarbamoyl)-4-fluoro-3-methoxy-pyrrolidin-1-yl]-2-oxo-ethyl}-5-methyl-1H-pyrazolo[3,4-c]pyridine-3-carboxylic acid amide], the IC50 is reported as 0.161 µM. `CO[C@H]1[C@@H](C(=O)NCCC(C)(C)C)N(C(=O)Cn2nc(C(C)=O)c3ccccc32)C[C@@H]1F` [Example 5, (2S,3S,4S)-1-[2-(3-Acetyl-indazol-1-yl)-acetyl]-4-fluoro-3-methoxy-pyrrolidine-2-carboxylic acid (3,3-dimethyl-butyl)-amide] was tested, and the IC50 was 0.088 µM. `CC(C)(C)CCNC(=O)[C@@H]1C[C@H]2C[C@H]2N1C(=O)Cn1nc(C(N)=O)c2ccncc21` [Example 6, 1-{2-[(1R,3S,5R)-3-(3,3-Dimethyl-butylcarbamoyl)-2-aza-bicyclo[3.1.0]hex-2-yl]-2-oxo-ethyl}-1H-pyrazolo[3,4-c] pyridine-3-carboxylic acid amide] was tested, and the IC50 was 0.168 µM. With `CC(=O)c1nn(CC(=O)N2[C@@H]3C[C@@H]3C[C@H]2C(=O)NCCC(C)(C)C)c2cnccc12` [Example 7, (1R,3S,5R)-2-[2-(3-Acetyl-pyrazolo[3,4-c]pyridin-1-yl)-acetyl]-2-aza-bicyclo[3.1.0] hexane-3-carboxylic acid (3,3-dimethyl-butyl)-amide] the IC50 was 0.068 µM. Work on `CC(=O)c1nn(CC(=O)N2[C@@H]3C[C@@H]3C[C@H]2C(=O)NCCC(C)(C)C)c2ccc(OCc3ncccn3)cc12` [Example 8, (1R,3S,5R)-2-{2-[3-Acetyl-5-(pyrimidin-2-ylmethoxy)-indazol-1-yl]-acetyl}-2-aza-bicyclo[3.1.0]hexane-3-carboxylic acid (3,3-dimethyl-butyl)-amide] yielded an IC50 of 0.009 µM. Work on `C[Si](C)(C)CCNC(=O)[C@@H]1C[C@H]2C[C@H]2N1C(=O)Cn1nc(C(N)=O)c2ccncc21` [Example 9, 1-{2-Oxo-2-[(1R,3S,5R)-3-(2-trimethylsilanyl-ethylcarbamoyl)-2-aza-bicyclo[3.1.0]hex-2-yl)-ethyl}-1H-pyrazolo[3,4-c] pyridine-3-carboxylic acid amide] yielded an IC50 of 0.153 µM. `CC(C)(O)CCNC(=O)[C@@H]1C[C@H]2C[C@H]2N1C(=O)Cn1nc(C(N)=O)c2ccncc21` [Example 10, 1-{2-[(1R,3S,5R)-3-(3-Hydroxy-3-methyl-butylcarbamoyl)-2-aza-bicyclo[3.1.0]hex-2-yl]-2-oxo-ethyl}-1H-pyrazolo[3,4-c] pyridine-3-carboxylic acid amide trifluoroacetate] gave an IC50 of 5.67 µM. With `CO[C@@H]1CN(C(=O)Cn2nc(C(N)=O)c3ccccc32)[C@H](C(=O)NCCC(C)(C)C)[C@H]1F` [Example 11, 1-{2-[(2R,3R,4R)-2-(3,3-Dimethyl-butylcarbamoyl)-3-fluoro-4-methoxy-pyrrolidin-1-yl]-2-oxo-ethyl}-1H-indazole-3-carboxylic acid amide] the IC50 was 14.6 µM. In the case of `CCNC(=O)[C@@H]1C[C@H]2C[C@H]2N1C(=O)Cn1nc(C(N)=O)c2ccncc21` [Example 12, 1-[2-((1R,3S,5R)-3-Ethylcarbamoyl-2-aza-bicyclo [3.1.0]hex-2-yl)-2-oxo-ethyl]-1H-pyrazolo[3,4-c]pyridine-3-carboxylic acid amide], the IC50 is reported as 7.22 µM. Work on `CCNC(=O)[C@@H]1C[C@H]2C[C@H]2N1C(=O)Cn1nc(C(C)=O)c2cc(OCc3ncccn3)ccc21` [Example 13, (1R,3S,5R)-2-{2-[3-Acetyl-5-(pyrimidin-2-ylmethoxy)-indazol-1-yl]-acetyl}-2-aza-bicyclo[3.1.0]hexane-3-carboxylic acid ethylamide] yielded an IC50 of 0.504 µM. In the case of `CC(=O)c1nn(CC(=O)N2[C@@H]3C[C@@H]3C[C@H]2C(=O)NCCCOC(F)(F)F)c2ccc(OCc3ncccn3)cc12` [Example 14, (1R,3S,5R)-2-{2-[3-Acetyl-5-(pyrimidin-2-ylmethoxy)-indazol-1-yl]-acetyl}-2-aza-bicyclo[3.1.0]hexane-3-carboxylic acid (3-trifluoro methoxy-propyl)-amide], the IC50 is reported as 0.127 µM. With `CC(=O)c1nn(CC(=O)N2[C@@H]3C[C@@H]3C[C@H]2C(=O)NCCOC(F)(F)F)c2ccc(OCc3ncccn3)cc12` [Example 15, (1R,3S,5R)-2-{2-[3-Acetyl-5-(pyrimidin-2-ylmethoxy)-indazol-1-yl]-acetyl}-2-aza-bicyclo[3.1.0]hexane-3-carboxylic acid (2-trifluoro methoxy-ethyl)-amide] the IC50 was 0.021 µM. `CC(=O)c1nn(CC(=O)N2[C@@H]3C[C@@H]3C[C@H]2C(=O)NCCOC(F)(F)C(F)(F)F)c2ccc(OCc3ncccn3)cc12` [Example 16, (1R,3S,5R)-2-{2-[3-Acetyl-5-(pyrimidin-2-ylmethoxy)-indazol-1-yl]-acetyl}-2-aza-bicyclo[3.1.0]hexane-3-carboxylic acid (2-penta fluoroethyloxy-ethyl)-amide] was tested, and the IC50 was 0.152 µM. Work on `CC[C@@H](C)NC(=O)[C@@H]1C[C@H]2C[C@H]2N1C(=O)Cn1nc(C(C)=O)c2cc(OCc3ncccn3)ccc21` [Example 17, (1R,3S,5R)-2-{2-[3-Acetyl-5-(pyrimidin-2-ylmethoxy)-indazol-1-yl]-acetyl}-2-aza-bicyclo[3.1.0]hexane-3-carboxylic acid ((R)-sec-butyl)-amide] yielded an IC50 of 0.333 µM. `CCNC(=O)[C@@H]1C[C@H]2C[C@H]2N1C(=O)Cn1nc(C(N)=O)c2cc(OCc3ncccn3)ccc21` [Example 18, 1-[2-((1R,3S,5R)-3-Ethylcarbamoyl-2-aza-bicyclo[3.1.0]hex-2-yl)-2-oxo-ethyl]-5-(pyrimidin-2-ylmethoxy)-1H-indazole-3-carboxylic acid amide] showed an IC50 of 2.89 µM. `CC[C@H](C)NC(=O)[C@@H]1C[C@H]2C[C@H]2N1C(=O)Cn1nc(C(C)=O)c2cc(OCc3ncccn3)ccc21` [Example 19, (1R,3S,5R)-2-{2-[3-Acetyl-5-(pyrimidin-2-ylmethoxy)-indazol-1-yl]-acetyl}-2-aza-bicyclo[3.1.0]hexane-3-carboxylic acid ((S)-sec-butyl)-amide] gave an IC50 of 0.929 µM. `CC(=O)c1nn(CC(=O)N2[C@@H]3C[C@@H]3C[C@H]2C(=O)NC(C)C)c2ccc(OCc3ncccn3)cc12` [Example 20, (1R,3S,5R)-2-{2-[3-Acetyl-5-(pyrimidin-2-ylmethoxy)-indazol-1-yl]-acetyl}-2-aza-bicyclo[3.1.0]hexane-3-carboxylic acid isopropyl amide] was tested, and the IC50 was 0.328 µM. In the case of `CC(C)(C)CCNC(=O)[C@@H]1C[C@H]2C[C@H]2N1C(=O)Nc1cn(C(N)=O)c2ccccc12` [Example 21, (1R,3S,5R)-2-Aza-bicyclo[3.1.0]hexane-2,3-dicarboxylic acid 2-[(1-carbamoyl-1H-indol-3-yl)-amide]3-[(3,3-dimethyl-butyl)-amide]], the IC50 is reported as 0.058 µM. In the case of `C[Si](C)(C)CCNC(=O)[C@@H]1C[C@H]2C[C@H]2N1C(=O)Nc1cn(C(N)=O)c2ccccc12` [Example 22, (1R,3S,5R)-2-Aza-bicyclo [3.1.0]hexane-2,3-dicarboxylic acid 2-[(1-carbamoyl-1H-indol-3-yl)-amide] 3-[(2-trimethylsilanyl-ethyl)-amide]], the IC50 is reported as 0.057 µM. Work on `NC(=O)n1cc(NC(=O)N2[C@@H]3C[C@@H]3C[C@H]2C(=O)NCCOC(F)(F)F)c2ccccc21` [Example 23, (1R,3S,5R)-2-Aza-bicyclo [3.1.0]hexane-2,3-dicarboxylic acid 2-[(1-carbamoyl-1H-indol-3-yl)-amide] 3-[(2-trifluoromethoxy-ethyl)-amide]] yielded an IC50 of 0.427 µM. `CCNC(=O)[C@@H]1C[C@H]2C[C@H]2N1C(=O)Nc1cn(C(N)=O)c2ccccc12` [Example 24, (1R,3S,5R)-2-Aza-bicyclo [3.1.0]hexane-2,3-dicarboxylic acid 2-[(1-carbamoyl-1H-indol-3-yl)-amide] 3-ethylamide] gave an IC50 of 1.75 µM. `NC(=O)n1cc(NC(=O)N2[C@@H]3C[C@@H]3C[C@H]2C(=O)NCCCOC(F)(F)F)c2ccccc21` [Example 25, (1R,3S,5R)-2-Aza-bicyclo [3.1.0]hexane-2,3-dicarboxylic acid 2-[(1-carbamoyl-1H-indol-3-yl)-amide] 3-[(3-trifluoromethoxy-propyl)-amide]] was tested, and the IC50 was 0.912 µM. Work on `NC(=O)n1cc(NC(=O)N2[C@@H]3C[C@@H]3C[C@H]2C(=O)NCCCCOC(F)(F)F)c2ccccc21` [Example 26, (1R,3S,5R)-2-Aza-bicyclo [3.1.0]hexane-2,3-dicarboxylic acid 2-[(1-carbamoyl-1H-indol-3-yl)-amide] 3-[(4-trifluoromethoxy-butyl)-amide]] yielded an IC50 of 1.39 µM. `NC(=O)n1cc(NC(=O)N2[C@@H]3C[C@@H]3C[C@H]2C(=O)NCCOC(F)(F)C(F)(F)F)c2ccccc21` [Example 27, (1R,3S,5R)-2-Aza-bicyclo [3.1.0]hexane-2,3-di arboxylic acid 2-[(1-carbamoyl-1H-indol-3-yl)-amide] 3-[(2-pentafluoroethyloxy-ethyl)-amide]] gave an IC50 of 1.97 µM.
